# Read-outs that look alike come from different tables or passages of the source.
# Molecular target: T1, Drosophila OR85b (Drosophila melanogaster, UniProt Q9VHQ7)
# T1 construct: expressed in transfected cells
# T1 sequence (Q9VHQ7 1-390): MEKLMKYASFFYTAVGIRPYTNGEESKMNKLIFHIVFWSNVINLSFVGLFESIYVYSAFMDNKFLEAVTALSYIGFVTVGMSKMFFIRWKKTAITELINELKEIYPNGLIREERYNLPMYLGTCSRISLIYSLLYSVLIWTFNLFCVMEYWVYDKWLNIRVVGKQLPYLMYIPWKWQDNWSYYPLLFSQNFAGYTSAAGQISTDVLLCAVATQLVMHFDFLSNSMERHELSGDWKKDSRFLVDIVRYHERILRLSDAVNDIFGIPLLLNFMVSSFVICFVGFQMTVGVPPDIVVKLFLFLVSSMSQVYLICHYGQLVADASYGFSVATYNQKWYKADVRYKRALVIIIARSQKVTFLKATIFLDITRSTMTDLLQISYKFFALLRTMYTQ
# T1 sequence (Q9VNB5 1-486 partner): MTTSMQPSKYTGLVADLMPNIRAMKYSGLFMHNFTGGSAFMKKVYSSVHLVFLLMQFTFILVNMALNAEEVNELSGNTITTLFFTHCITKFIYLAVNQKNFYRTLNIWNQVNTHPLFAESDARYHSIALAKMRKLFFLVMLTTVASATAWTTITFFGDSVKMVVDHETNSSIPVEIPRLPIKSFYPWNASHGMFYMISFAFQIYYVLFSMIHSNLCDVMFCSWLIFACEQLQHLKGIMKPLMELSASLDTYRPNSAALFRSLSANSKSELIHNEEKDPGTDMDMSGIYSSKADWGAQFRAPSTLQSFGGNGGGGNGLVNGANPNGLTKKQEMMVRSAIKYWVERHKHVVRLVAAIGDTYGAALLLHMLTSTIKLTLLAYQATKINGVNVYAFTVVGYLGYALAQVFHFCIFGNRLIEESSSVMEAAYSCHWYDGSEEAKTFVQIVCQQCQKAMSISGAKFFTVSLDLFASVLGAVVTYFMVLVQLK
# Experiment: Calcium ion fluorescence (GCaMP6) assay, OR85b stable HEK293 cell line
# Format: cell-based
# Set-up: key to DF norm AVERAGE OR85b: VOC ∆F divided by the plate's mean ∆F response to 50 µM VUAA1
# Settings: for Average response / OR85b response (VUAA1-normalized) at 1 μM / OR85b response (VUAA1-normalized) at 10 μM / OR85b response (VUAA1-normalized) at 100 μM: OR85b cell line; for Average response: VUAA1-normalized response, mean of biological replicates
# Method: These VUAA1 normalized ∆F values were used to compare the different receptors and ligands.
# The concentration-dependent effect of the reference ligands on their cognate cell lines was examined in more detail. Twelve different ligand concentrations were measured on each cell line in an overall 0.01 μM to 100 μM concentration range with 5 repetitions with three technical replicates each time.
# Twelve thousand to 18,000 cells were plated into each well of a black wall, transparent bottom 384-well microplate (Greiner) 48 h or 72 h before the measurements and were simultaneously treated with 1 μg/mL doxycycline. […] The plate has 24 columns, thus we could record responses in up to eight different cell lines in each plate. On the day of the experiment, the growth medium was replaced with 20 µL assay buffer/well (140 mM NaCl, 5 mM KCl, 2 mM CaCl2, 1 mM MgCl2, 5 mM HEPES-Na, 20 mM glucose, pH 7.3, 340 mOsm). […] Baseline fluorescence (F0) was recorded for 5 s, after which 7 µL VOC buffer (140 mM NaCl, 5 mM KCl, 2 mM CaCl2, 1 mM MgCl2, 5 mM HEPES-Na, 31 mM glucose, 0.1% DMSO, pH 7.3, 340 mOsm) was injected into each well in one row and the fluorescence response was recorded for an additional 30 s, at a rate of one read/sec. VOC solutions (VOC buffer with 4× concentration of the final measured VOC concentration, 9 µL/well was injected) were measured on the same wells in a second round with the same protocol. Each individual concentration of a specific VOC sample was recorded in three wells for the same cell line on the same microplate. The raw data were exported in xls file format, F0 and FMAX values, and the fluorescence intensity changes (∆F) were calculated in Excel (Microsoft) (Supplementary file Data summary.xlsx) using the following equation: ΔF=FMAX-F0/F0 (see also Fig. 1C). On each plate, we recorded the response of each cell line to 50 µM VUAA1. The average of these ∆F values of each cell line were used to calculate the VUAA1-normalized values for the rest of the plate, by dividing VOC response ∆F values by the average VUAA1 response ∆F value of the corresponding OR cell line. Each VOC-OR combination was measured three times as technical replicates. […] The average of these replicates were used as one ∆F and VUAA1-normalized ∆F in the following analysis.
# In the next rows we tested the reference VOCs (or other VOCs known to activate the corresponding cell lines), in order to test if all cell lines are responsive. The remaining rows were used to test VOCs with unknown effect.
# The recorded FMAX, F0, ∆F, VUAA1-normalized ∆F values, as well as the OR name, the name of the tested sample, and the final concentration for each well were copied into supplementary file Data summary.xlsx, that was used to summarize all the plates recorded. Here, the averages of the measurements were calculated for each receptor-VOC-concentration combination.
# [1] = HEK293, read-out: OR85b response (VUAA1-normalized response)
# [2] = concentration 1, normalized fluorescence change, values below 0.05 threshold given as 0
# [3] = concentration 10, normalized fluorescence change, values below 0.05 threshold given as 0
# [4] = concentration 100, normalized fluorescence change, values below 0.05 threshold given as 0
# [5] = HEK293, read-out: OR85b Average response (VUAA1-normalized)
# [6] = ligand concentration 1 (unit not given), 0.05 threshold, values below shown as 0
# [7] = ligand concentration 10 (unit not given), 0.05 threshold, values below shown as 0
# [8] = ligand concentration 100 (unit not given), 0.05 threshold, values below shown as 0
# [9] = ligand concentration 1 (unit not given), threshold 0.05, below shown as 0
# [10] = ligand concentration 10 (unit not given), threshold 0.05, below shown as 0
# [11] = ligand concentration 100 (unit not given), threshold 0.05, below shown as 0
Compound,activation at 1 µM [1] [%],activation at 10 µM [1] [%],activation at 100 µM [1] [%],Average response (cc. 1 µM),Average response (cc. 10 µM),Average response (cc. 100 µM),DF norm AVERAGE OR85b [2],DF norm AVERAGE OR85b [3],DF norm AVERAGE OR85b [4],OR85b response (VUAA1-normalized) at 1 μM (VOC concentration 1 μM),OR85b response (VUAA1-normalized) at 10 μM (VOC concentration 10 μM),OR85b response (VUAA1-normalized) at 100 μM (VOC concentration 100 μM),other results
CCCCCCCCC(CO)CCCCCC (stereo not drawn) [2-hexyl-1-decanol],13,7,8,0.13,0.07,0.08,0.1336,0.06997,0.07977,–,–,–,–
CC1=CCC23CC1C(C)(C)C2CCC3C (stereo not drawn) [α-funebrene],–,–,–,0.10,0.00,0.26,–,–,–,0.10,0.00,0.26,activation at 1 µM [5]: 10%; activation at 10 µM [5]: 0%; activation at 100 µM [5]: 26%; DF norm AVERAGE OR85b [6]: 0.09747; DF norm AVERAGE OR85b [7]: 0; DF norm AVERAGE OR85b [8]: 0.2621
CC/C=C/CCO [e3-hexenol],–,–,–,0.00,0.00,0.0284,–,–,–,–,–,–,DF norm AVERAGE OR85b [9]: 0; DF norm AVERAGE OR85b [10]: 0; DF norm AVERAGE OR85b [11]: 0
(-)-alpha-cedrene,–,–,–,0.00,0.0466,0.0948,0,0,0.09481,–,–,–,OR85b response (VUAA1-normalized response) (VOC concentration 1 μM): 0.00; OR85b response (VUAA1-normalized response) (VOC concentration 10 μM): 0.00; OR85b response (VUAA1-normalized response) (VOC concentration 100 μM): 0.0948
"Cc1ccc(C)c(C)c1 [1,2,4-trimethylbenzene]",0,7.41,12,0.0436,0.0741,0.12,0,0.0741,0.1212,–,–,–,activation at 1 µM [5]: 4%; activation at 10 µM [5]: 7%; activation at 100 µM [5]: 12%
Cc1cccc(C)c1 [m-xylene],–,–,–,0.023,0.00,0.09,–,–,–,0.00,0.00,0.09,DF norm AVERAGE OR85b [9]: 0; DF norm AVERAGE OR85b [10]: 0; DF norm AVERAGE OR85b [11]: 0.08801
Cc1ccccc1C [o-xylene],–,–,–,0.08,0.03,0.08,–,–,–,0.08,0.00,0.08,DF norm AVERAGE OR85b [9]: 0.08035; DF norm AVERAGE OR85b [10]: 0; DF norm AVERAGE OR85b [11]: 0.08274
CCc1ccccc1 [ethylbenzene],0,0,0,0.00719,0.00,0.00,–,–,–,–,–,–,DF norm AVERAGE OR85b [9]: 0; DF norm AVERAGE OR85b [10]: 0; DF norm AVERAGE OR85b [11]: 0
CCCCCCCCCCC [undecane],–,–,–,0.0284,0.05,0.11,–,–,–,0.00,0.05,0.11,activation at 1 µM [5]: 3%; activation at 10 µM [5]: 5%; activation at 100 µM [5]: 11%; DF norm AVERAGE OR85b [6]: 0; DF norm AVERAGE OR85b [7]: 0.05165; DF norm AVERAGE OR85b [8]: 0.1131
CC/C=C\CCO [Z3-hexenol],–,–,–,0.0533,0.0426,0.00,–,–,–,–,–,–,DF norm AVERAGE OR85b [6]: 0.05333; DF norm AVERAGE OR85b [7]: 0; DF norm AVERAGE OR85b [8]: 0
CCCC(O)CC (stereo not drawn) [3-hexanol],0,10,0,0.00,0.10,0.0225,0,0.09908,0,–,–,–,–
CCCCCCCCCCCCCC [tetradecane],–,–,–,0.10,0.0844,0.04,–,–,–,0.10,0.0844,0.00,DF norm AVERAGE OR85b [6]: 0.0972; DF norm AVERAGE OR85b [7]: 0.08442; DF norm AVERAGE OR85b [8]: 0
(+)-beta-cedrene,–,–,–,0.00,0.0468,0.0135,0,0,0,–,–,–,OR85b response (VUAA1-normalized response) (VOC concentration 1 μM): 0.00; OR85b response (VUAA1-normalized response) (VOC concentration 10 μM): 0.00; OR85b response (VUAA1-normalized response) (VOC concentration 100 μM): 0.00
CC1=CCC[C@@]2(C)[C@@H]3CC[C@]12CC3(C)C [(−)-α-neoclovene],–,–,–,0.00,0.00,0.0165,0,0,0,–,–,–,OR85b response (VUAA1-normalized response) (VOC concentration 1 μM): 0.00; OR85b response (VUAA1-normalized response) (VOC concentration 10 μM): 0.00; OR85b response (VUAA1-normalized response) (VOC concentration 100 μM): 0.00
"COc1cccc(OC)c1 [1,3-dimethoxy benzene]",0,0,0,0.00,0.0268,0.0367,0,0,0,–,–,–,–
"C=CC(O)C/C=C\CC (stereo not drawn) [(5Z)-octa-1,5-dien-3-ol]",7,9,0,0.07,0.09,0.00,0.07163,0.08739,0,–,–,–,–

# Reference: article PMC10709440, “High-throughput ligand profile characterization in novel cell lines expressing seven heterologous insect olfactory receptors for the detection of volatile plant biomarkers” (Scientific Reports, 2023)
